According to US20230414535A1, “PHARMACEUTICAL COMPOSITION COMPRISING UBIQUINONE-5 AND METHOD OF USE THEREOF” (The Trustees of Columbia University in the City of New York, priority 2021, published 2023):

Legend:
[1] = test system: isolated forebrain mitochondria; experiment: Oligomycin-induced state 4 respiration and ΔΨm in isolated forebrain mitochondria; format: biochemical; details: for effect on GABA- or Ub5-induced respiration/leak: added after GABA or Ub5, picrotoxin 1 mM, PLP 10 mM
Protocol: Turning to FIGS. 10a and b, oligomycin-induced state 4 was initiated in isolated forebrain mitochondria using succinate. Tracings of O2 consumption (FIG. 10a) with simultaneous ΔΨm measurement (FIG. 10b) are depicted. Numbers (FIG. 10a) are rates of respiration (nmol·mL-1·min-1·mg mitochondrial protein-1). GABA (10 mM) or Ub5 ([…]) were added. Aralar was inhibited with pyridoxal 5′-phosphate (PLP)(10 mM). Picrotoxin (GABAA receptor antagonist (1 mM)) and GABA or Ub5 alone served as controls. Black solid lines are slopes of ΔΨm prior to and after inhibitor. Decrease in respiration rate with concomitant stabilization or rise in ΔΨm indicates inhibition of leak. […] Thus, PLP blocked GABA import via Aralar. […] Aralar is best described as an aspartate-glutamate carrier within mitochondria. Aralar is the solute that exports aspartate from neuronal mitochondria in exchange for glutamate plus a proton. Thus, Aralar causes leak by translocating protons across the inner mitochondrial membrane during solute transport. Aralar causes leak that can degrade ΔΨm. Aralar is a neuronal transporter that sequesters GABA within the mitochondrial matrix. Many anesthetic agents bind to the GABAA receptor and potentiate GABAergic signaling.

isolated mitochondria = experiment: Complex II-dependent state 4 (leak) respiration with simultaneous mitochondrial membrane potential measurement; format: biochemical; details: succinate in the presence of oligomycin, FIG. 1
Excerpt: FIGS. 1a-c are representative tracings of complex II-dependent state 4 respiration (leak respiration) using succinate in the presence of oligomycin are depicted above and tracings of simultaneously measured mitochondrial membrane potential (ΔΨ) are shown below, for (a) propofol, (b) decylubiquinone, and (c) ubiquinone-5;
In FIG. 1, representative tracings of Complex II-dependent state 4 respiration (leak respiration) using succinate in the presence of oligomycin are depicted in the top three curves and tracings of simultaneously measured mitochondrial membrane potential (ΔΨ) are shown in the bottom three curves. The numbers in the tracings above show rates of oxygen consumption (nmol·mL-1·min-1·mg mitochondrial protein-1). Addition of propofol (FIG. 1 a) decylubiquinone (DB) (FIG. 1b) or ubiquinone-5 (FIG. 1c) are indicated. ΔΨ was determined as a function of triphenylphosphonium (TPP+) concentration in the bath. […] This mechanism is highly reminiscent of the effect of the anesthetic, propofol (FIG. 1a), in isolated mitochondria.

[2] = test system: isolated perfused murine hearts; experiment: Surface ECG of isolated perfused murine hearts; details: isolated perfused heart
Protocol: In FIGS. 2a and 2b, surface ECGs were recorded continuously for isolated perfused murine hearts that were prepared and stabilized. Hearts were exposed to either decylubiquinone or ubiquione-5. […] Thus, quinone analogs suppressed electrical signaling in the heart in a reversible manner.

For `NCCCC(=O)O` [GABA], the “proton leak (respiration and ΔΨm)” value ([1]; succinate, oligomycin-induced state 4, GABA (10 mM) or Ub5 (100 mM), FIG. 10) was “induced a slow increase in proton leak”.
In the case of `Cc1ncc(COP(=O)(O)O)c(C=O)c1O` [PLP, pyridoxal 5′-phosphate], the “effect on ΔΨm after GABA or Ub5” value ([1]; PLP 10 mM added after GABA or Ub5) is reported as “stabilized ΔΨm”, the “effect on ΔΨm with Ub5” value ([1]; PLP 10 mM added after Ub5) is reported as “acutely increased ΔΨm” and the “effect on GABA- or Ub5-induced respiration/leak” value [1] is reported as “normalized respiration to pre-GABA or Ub5 levels”.
With `CCCCCCCCCCC1=C(C)C(=O)C(OC)=C(OC)C1=O` [decylubiquinone] the “proton leak (state 4 respiration)” value (isolated mitochondria) was “increased proton leak”, the “mitochondrial membrane potential (ΔΨ)” value (isolated mitochondria; determined via TPP+) was “decline in ΔΨ” and the “ECG upon cessation of exposure and washout” value ([2]; after washout) was “sinus rhythm normalized”. For the same compound, the “surface ECG effect during exposure” value ([2]; during exposure, FIG. 2) was “rapidly induced bradycardia that persisted throughout the duration of exposure”.
With Picrotoxin the “effect on GABA- or Ub5-induced respiration/leak” value [1] was “minimal effect”.
